Experimental data reported in ChEMBL document CHEMBL3045122, “Synthesis, in vitro antimicrobial, antiproliferative, and QSAR studies of N-(substituted phenyl)-2/4-(1H-indol-3-ylazo)-benzamides” (Med Chem Res, 2013).

Key:
HCT-116 = assay: Cytotoxicity against Homo sapiens (human) HCT116 cells assessed as growth inhibition after 72 hr by MTT assay; type: functional, cell-based
Aspergillus niger [1] = assay: Ratio of MFC to MIC for Aspergillus niger; type: functional
MCF7 = assay: Cytotoxicity against Homo sapiens (human) MCF7 cells assessed as growth inhibition after 72 hr by MTT assay; type: functional, cell-based
Candida albicans [2] = assay: Ratio of MFC to MIC for Candida albicans; type: functional
Escherichia coli [3] = assay: Ratio of MBC to MIC for Escherichia coli; type: functional
Bacillus subtilis [4] = assay: Ratio of MBC to MIC for Bacillus subtilis; type: functional
Staphylococcus aureus [5] = assay: Ratio of MBC to MIC for Staphylococcus aureus; type: functional
Aspergillus niger [6] = assay: Fungicidal activity against Aspergillus niger; type: functional
Candida albicans [7] = assay: Fungicidal activity against Candida albicans; type: functional
Escherichia coli [8] = assay: Bactericidal activity against Escherichia coli; type: functional
Bacillus subtilis [9] = assay: Bactericidal activity against Bacillus subtilis; type: functional
Staphylococcus aureus [10] = assay: Bactericidal activity against Staphylococcus aureus; type: functional
Aspergillus niger [11] = assay: Antifungal activity against Aspergillus niger assessed as growth inhibition after 7 days by tube dilution method; type: functional
Escherichia coli [12] = assay: Antibacterial activity against Escherichia coli assessed as growth inhibition after 24 hr by tube dilution method; type: functional
Candida albicans [13] = assay: Antifungal activity against Candida albicans assessed as growth inhibition after 48 hr by tube dilution method; type: functional
Bacillus subtilis [14] = assay: Antibacterial activity against Bacillus subtilis assessed as growth inhibition after 24 hr by tube dilution method; type: functional
Staphylococcus aureus [15] = assay: Antibacterial activity against Staphylococcus aureus assessed as growth inhibition after 24 hr by tube dilution method; type: functional
P388 = assay: Cytotoxicity against Mus musculus (mouse) P388 cells assessed as growth inhibition after 72 hr by MTT assay; type: functional, cell-based

Row | SMILES | IC50 (HCT-116) [uM/ml] | Ratio (Aspergillus niger [1]) | IC50 (MCF7) [uM/ml] | Ratio (Candida albicans [2]) | Ratio (Escherichia coli [3]) | Ratio (Bacillus subtilis [4]) | Ratio (Staphylococcus aureus [5]) | MFC (Aspergillus niger [6]) [uM/ml] | MFC (Candida albicans [7]) [uM/ml] | MBC (Escherichia coli [8]) [uM/ml] | MBC (Bacillus subtilis [9]) [uM/ml] | MBC (Staphylococcus aureus [10]) [uM/ml] | -logMIC (Aspergillus niger [11]) | -logMIC (Escherichia coli [12]) | -logMIC (Candida albicans [13]) | -logMIC (Bacillus subtilis [14]) | -logMIC (Staphylococcus aureus [15]) | IC50 (P388) [uM/ml]
1 | O=C(Nc1ccccc1Cl)c1ccccc1/N=N\c1c[nH]c2ccccc12 | 0.24 | 3 | 0.1067 | 3 | 3 | 3 | 3 | 0.03 | >0.13 | >0.13 | >0.13 | >0.13 | 1.48 | 1.48 | 1.48 | 1.48 | 1.18 | –
2 | O=C(Nc1cccc(Cl)c1)c1ccccc1/N=N\c1c[nH]c2ccccc12 | 0.2933 | 3 | 0.1067 | 3 | 3 | 3 | 3 | 0.03 | >0.13 | >0.13 | >0.13 | >0.13 | 1.48 | 1.78 | 1.48 | 1.48 | 1.18 | –
3 | O=C(Nc1ccc(Cl)cc1)c1ccccc1/N=N\c1c[nH]c2ccccc12 | 0.3467 | 3 | 0.1067 | 3 | 3 | 3 | 3 | 0.03 | >0.13 | >0.13 | >0.13 | >0.13 | 1.48 | 1.48 | 1.48 | 1.48 | 1.18 | –
4 | Cc1ccccc1NC(=O)c1ccccc1/N=N\c1c[nH]c2ccccc12 | 1.1299 | 3 | 0.1412 | 3 | 3 | 3 | 3 | 0.04 | >0.14 | >0.14 | >0.14 | >0.14 | 1.45 | 1.45 | 1.45 | 1.45 | 1.15 | –
5 | O=C(Nc1ccccc1)c1ccccc1/N=N\c1c[nH]c2ccccc12 | 0.2353 | 3 | 0.0882 | 3 | 3 | 3 | 3 | 0.04 | >0.15 | >0.15 | >0.15 | >0.15 | 1.44 | 1.74 | 1.44 | 1.74 | 1.13 | –
6 | Cc1ccc(NC(=O)c2ccccc2/N=N\c2c[nH]c3ccccc23)c(C)c1 | 0.0815 | 3 | 0.1087 | 3 | 3 | 3 | 3 | 0.03 | >0.14 | >0.14 | >0.14 | >0.14 | 1.47 | 1.47 | 1.47 | 1.47 | 1.17 | –
7 | Cc1cccc(NC(=O)c2ccccc2/N=N\c2c[nH]c3ccccc23)c1 | 0.1695 | 3 | 0.1271 | 3 | 3 | 3 | 3 | 0.04 | >0.14 | >0.14 | >0.14 | >0.14 | 1.45 | 1.75 | 1.45 | 1.75 | 1.45 | –
8 | Cc1ccc(NC(=O)c2ccccc2/N=N\c2c[nH]c3ccccc23)cc1 | 0.452 | 3 | 0.0791 | 3 | 3 | 3 | 3 | 0.04 | >0.14 | >0.14 | >0.14 | >0.14 | 1.45 | 1.45 | 1.45 | 1.45 | 1.15 | –
9 | Cc1cccc(NC(=O)c2ccccc2/N=N\c2c[nH]c3ccccc23)c1C | 0.3533 | 3 | 0.1087 | 3 | 3 | 3 | 3 | 0.03 | >0.14 | >0.14 | >0.14 | >0.14 | 1.47 | 1.77 | 1.47 | 1.47 | 1.17 | –
10 | Cc1ccc(C)c(NC(=O)c2ccccc2/N=N\c2c[nH]c3ccccc23)c1 | 0.163 | 3 | 0.1087 | 3 | 3 | 3 | 3 | 0.03 | >0.14 | >0.14 | >0.14 | >0.14 | 1.47 | 1.47 | 1.47 | 1.77 | 1.17 | –
11 | O=C(Nc1ccccc1F)c1ccccc1/N=N\c1c[nH]c2ccccc12 | 0.2235 | 3 | 0.1397 | 3 | 3 | 3 | 3 | 0.03 | >0.14 | >0.14 | >0.14 | >0.14 | 1.46 | 1.76 | 1.46 | 1.46 | 1.16 | –
12 | OC(Cn1cncn1)(Cn1cncn1)c1ccc(F)cc1F [FLUCONAZOLE] | – | 3 | – | 3 | – | – | – | 0.04 | 0.04 | – | – | – | 2.64 | – | 2.64 | – | – | –
13 | O=c1[nH]cc(F)c(=O)[nH]1 [FLUOROURACIL] | 0.0462 | – | 0.0052 | – | – | – | – | – | – | – | – | – | – | – | – | – | – | 0.0219
14 | CCn1cc(C(=O)O)c(=O)c2cc(F)c(N3CCNCC3)cc21 [NORFLOXACIN] | – | – | – | – | 3 | 3 | 3 | – | – | 0.019 | 0.019 | 0.019 | – | 2.61 | – | 2.61 | 2.61 | –
